Data from patent US10131652B2, “Pyrimidinyloxy benzene derivatives as herbicides” (E. I. DU PONT DE NEMOURS AND COMPANY, priority 2014, dated 2018).
Where two headings read alike, the source gives them in different places.

Legend:
Type in all cases: in vivo
[1] = tested on: Brazilian crabgrass (Digitaria horizontalis); experiment: Test F pre-/postemergence plant response; details: Digitaria horizontalis, scale 0 to 100, read-out: Plant response rating, Crabgrass, Brazil
Outline: (§1)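 Plant response is a visual score from 0, meaning no effect, to 100, meaning complete control, assigned by comparison with untreated plants. Ratings were made 14 to 21 days after preemergence application to seeded silt loam or postemergence application to plants at the 1- to 4-leaf stage.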

[2] = tested on: Italian ryegrass (Lolium multiflorum); experiment: Test F pre-/postemergence plant response; details: Lolium multiflorum, scale 0 to 100, read-out: Plant response rating, Ryegrass, Italian; for pest or weed control at 16 g/ha: 16 g ai/ha; for pest or weed control at 31 g/ha: 31 g ai/ha; for pest or weed control at 125 g/ha: 125 g ai/ha
Outline: as §1

[3] = tested on: barnyardgrass (Echinochloa crus-galli); experiment: Test F pre-/postemergence plant response; details: Echinochloa crus-galli, scale 0 to 100, read-out: Plant response rating, Barnyardgrass
Outline: as §1

[4] = tested on: dayflower (Virginia (VA) dayflower, Commelina virginica); experiment: Test F pre-/postemergence plant response; details: Commelina virginica, scale 0 to 100, read-out: Plant response rating, Dayflower, VA
Outline: as §1

[5] = tested on: giant foxtail (Setaria faberii); experiment: Test F pre-/postemergence plant response; details: Setaria faberi, pre-emergence, scale 0 to 100, read-out: Plant response rating, Foxtail, Giant
Outline: as §1

[6] = tested on: lambsquarters (Chenopodium album); experiment: Test F pre-/postemergence plant response; details: Chenopodium album, pre-emergence, scale 0 to 100, read-out: Plant response rating, Lambsquarters
Outline: as §1

[7] = tested on: large (Lg) crabgrass (Digitaria sanguinalis); experiment: Test F pre-/postemergence plant response; details: Digitaria sanguinalis, pre-emergence, scale 0 to 100, read-out: Plant response rating, Crabgrass, Large
Outline: as §1

[8] = tested on: morningglory (Ipomoea coccinea); experiment: Test F pre-/postemergence plant response; details: Ipomoea, pre-emergence, scale 0 to 100, read-out: Plant response rating, Morningglory
Outline: as §1

[9] = tested on: sandbur (southern sandbur, Cenchrus echinatus); experiment: Test F pre-/postemergence plant response; details: Cenchrus echinatus, scale 0 to 100, read-out: Plant response rating, Sandbur
Outline: as §1

[10] = tested on: soybean (Glycine max); experiment: Test F pre-/postemergence plant response; details: Glycine max, scale 0 to 100, read-out: Plant response rating, Soybean
Outline: as §1

[11] = tested on: surinam grass (Brachiaria decumbens); experiment: Test F pre-/postemergence plant response; details: Urochloa decumbens, pre-emergence, scale 0 to 100, read-out: Plant response rating, Surinam Grass
Outline: as §1

[12] = tested on: waterhemp_RES1 (ALS & Triazine resistant common waterhemp, Amaranthus rudis); experiment: Test F postemergence plant response; details: scale 0 to 100
Outline: (§2)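 Rated visually versus controls, 0 (no effect) to 100 (complete control), after 14–21 days in greenhouse. Compounds were sprayed postemergence on seedlings at 1- to 4-leaf stage, 2–18 cm tall.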

[13] = tested on: waterhemp_RES2 (ALS & HPPD resistant common waterhemp, Amaranthus rudis); experiment: Test F postemergence plant response; details: scale 0 to 100
Outline: as §2

[14] = post-emergence, 8 g ai/ha Postemergence
[15] = post-emergence, 16 g ai/ha Postemergence
[16] = post-emergence, 31 g ai/ha Postemergence
[17] = post-emergence, 62 g ai/ha Postemergence
[18] = post-emergence, 125 g ai/ha Postemergence
[19] = pre-emergence, 8 g ai/ha Preemergence
[20] = pre-emergence, 16 g ai/ha Preemergence
[21] = pre-emergence, 31 g ai/ha Preemergence
[22] = pre-emergence, 62 g ai/ha Preemergence
[23] = pre-emergence, 125 g ai/ha Preemergence

Work on FC(F)(F)c1cc(-c2ccccc2Oc2ncc(Cl)cn2)no1 [Compound 200, 5-chloro-2-[2-[5-(trifluoromethyl)-3-isoxazolyl]phenoxy]pyrimidine] yielded a pest or weed control at 8 g/ha [1, 14] of 10%, a pest or weed control at 16 g/ha [1, 15] of 10% and a pest or weed control at 31 g/ha [1, 16] of 15%. For the same molecule, the pest or weed control at 62 g/ha [1, 17] was 20%, the pest or weed control at 125 g/ha [1, 18] was 20% and the pest or weed control at 8 g/ha [1, 19] was 0%. For the same molecule, the pest or weed control at 16 g/ha [1, 20] was 90%, the pest or weed control at 31 g/ha [1, 21] was 98% and the pest or weed control at 62 g/ha [1, 22] was 100%. For the same molecule, the pest or weed control at 125 g/ha [1, 23] was 100%, the pest or weed control at 8 g/ha [2, 14] was 0% and the pest or weed control at 16 g/ha ([2]; post-emergence, Postemergence) was 0%. It also gave a pest or weed control at 31 g/ha ([2]; post-emergence, Postemergence) of 0%, a pest or weed control at 62 g/ha ([2]; post-emergence, 62 g ai/ha, Postemergence) of 15% and a pest or weed control at 125 g/ha ([2]; post-emergence, Postemergence) of 20%. It also gave a pest or weed control at 8 g/ha [2, 19] of 0%, a pest or weed control at 16 g/ha ([2]; pre-emergence, Preemergence) of 0% and a pest or weed control at 31 g/ha ([2]; pre-emergence, Preemergence) of 0%. It also gave a pest or weed control at 125 g/ha ([2]; pre-emergence, Preemergence) of 40%, a pest or weed control at 62 g/ha ([2]; pre-emergence, Preemergence) of 20% and a pest or weed control at 8 g/ha [3, 14] of 0%. It also gave a pest or weed control at 16 g/ha [3, 15] of 0%, a pest or weed control at 31 g/ha [3, 16] of 0% and a pest or weed control at 62 g/ha [3, 17] of 15%. It also gave a pest or weed control at 125 g/ha [3, 18] of 25%, a pest or weed control at 8 g/ha [3, 19] of 0% and a pest or weed control at 16 g/ha [3, 20] of 0%. The pest or weed control at 31 g/ha [3, 21] was 0%, the pest or weed control at 62 g/ha [3, 22] was 30% and the pest or weed control at 125 g/ha [3, 23] was 60%. It also gave a pest or weed control at 8 g/ha [4, 14] of 0%, a pest or weed control at 16 g/ha [4, 15] of 0% and a pest or weed control at 31 g/ha [4, 16] of 25%. The pest or weed control at 62 g/ha [4, 17] was 15%, the pest or weed control at 125 g/ha [4, 18] was 35% and the pest or weed control at 8 g/ha [4, 19] was 0%. It also gave a pest or weed control at 16 g/ha [4, 20] of 15%, a pest or weed control at 31 g/ha [4, 21] of 50% and a pest or weed control at 62 g/ha [4, 22] of 70%. The pest or weed control at 125 g/ha [4, 23] was 90%, the pest or weed control at 8 g/ha ([5]; 8 g ai/ha Preemergence) was 0% and the pest or weed control at 16 g/ha ([5]; 16 g ai/ha Preemergence) was 35%. For the same molecule, the pest or weed control at 31 g/ha ([5]; 31 g ai/ha Preemergence) was 65%, the pest or weed control at 62 g/ha ([5]; 62 g ai/ha Preemergence) was 100% and the pest or weed control at 125 g/ha ([5]; 125 g ai/ha Preemergence) was 100%. For the same molecule, the pest or weed control at 8 g/ha ([6]; 8 g ai/ha Preemergence) was 0%, the pest or weed control at 16 g/ha ([6]; 16 g ai/ha, Preemergence) was 0% and the pest or weed control at 31 g/ha ([6]; 31 g ai/ha, Preemergence) was 98%. It also gave a pest or weed control at 125 g/ha ([6]; 125 g ai/ha, Preemergence) of 100%, a pest or weed control at 62 g/ha ([6]; Preemergence) of 98% and a pest or weed control at 8 g/ha ([7]; 8 g ai/ha Preemergence) of 0%. For the same molecule, the pest or weed control at 16 g/ha ([7]; 16 g ai/ha Preemergence) was 50%, the pest or weed control at 31 g/ha ([7]; 31 g ai/ha Preemergence) was 85% and the pest or weed control at 62 g/ha ([7]; 62 g ai/ha Preemergence) was 95%. The pest or weed control at 125 g/ha ([7]; 125 g ai/ha Preemergence) was 100%, the pest or weed control at 8 g/ha ([8]; 8 g ai/ha Preemergence) was 0% and the pest or weed control at 16 g/ha ([8]; 16 g ai/ha Preemergence) was 0%. It also gave a pest or weed control at 31 g/ha ([8]; 31 g ai/ha Preemergence) of 0%, a pest or weed control at 125 g/ha ([8]; 125 g ai/ha Preemergence) of 15% and a pest or weed control at 62 g/ha ([8]; Preemergence) of 0%. For the same molecule, the pest or weed control at 8 g/ha [9, 14] was 0%, the pest or weed control at 16 g/ha [9, 15] was 0% and the pest or weed control at 31 g/ha [9, 16] was 0%. The pest or weed control at 62 g/ha [9, 17] was 0%, the pest or weed control at 125 g/ha [9, 18] was 5% and the pest or weed control at 8 g/ha [9, 19] was 0%. For the same molecule, the pest or weed control at 16 g/ha [9, 20] was 5%, the pest or weed control at 31 g/ha [9, 21] was 5% and the pest or weed control at 125 g/ha [9, 23] was 75%. It also gave a pest or weed control at 62 g/ha ([9]; pre-emergence, Preemergence) of 40%, a plant injury at 8 g/ha [10, 14] of 15% and a plant injury at 16 g/ha [10, 15] of 20%. For the same molecule, the plant injury at 31 g/ha [10, 16] was 40%, the plant injury at 62 g/ha [10, 17] was 65% and the plant injury at 125 g/ha [10, 18] was 90%. For the same molecule, the plant injury at 8 g/ha [10, 19] was 0%, the plant injury at 16 g/ha [10, 20] was 0% and the plant injury at 31 g/ha [10, 21] was 20%. It also gave a plant injury at 125 g/ha [10, 23] of 50%, a plant injury at 62 g/ha ([10]; pre-emergence, Preemergence) of 30% and a pest or weed control at 8 g/ha ([11]; 8 g ai/ha Preemergence) of 0%. It also gave a pest or weed control at 16 g/ha ([11]; 16 g ai/ha Preemergence) of 0%, a pest or weed control at 31 g/ha ([11]; 31 g ai/ha Preemergence) of 0% and a pest or weed control at 125 g/ha ([11]; 125 g ai/ha Preemergence) of 35%. For the same molecule, the pest or weed control at 62 g/ha ([11]; Preemergence) was 10%, the “Plant response rating, Waterhemp_RES1” value ([12]; 8 g ai/ha Postemergence) was 70 and the “Plant response rating, Waterhemp_RES1” value ([12]; 16 g ai/ha Postemergence) was 75. The “Plant response rating, Waterhemp_RES1” value ([12]; 31 g ai/ha Postemergence) was 90, the “Plant response rating, Waterhemp_RES1” value ([12]; 62 g ai/ha Postemergence) was 95 and the “Plant response rating, Waterhemp_RES1” value ([12]; 125 g ai/ha Postemergence) was 98. For the same molecule, the “Plant response rating, Waterhemp_RES2” value ([13]; 8 g ai/ha Postemergence) was 75, the “Plant response rating, Waterhemp_RES2” value ([13]; 16 g ai/ha Postemergence) was 95 and the “Plant response rating, Waterhemp_RES2” value ([13]; 31 g ai/ha Postemergence) was 95. The “Plant response rating, Waterhemp_RES2” value ([13]; 62 g ai/ha Postemergence) was 98 and the “Plant response rating, Waterhemp_RES2” value ([13]; 125 g ai/ha Postemergence) was 98.
